Columns and labels:
[1] = biological target: T1, HDAC6 (Homo sapiens, UniProt Q9UBN7); assay: HDAC enzymatic assay (Reaction Biology), fluorogenic substrate; assay type: biochemical; parameters: purchased Reaction Biology
T1 sequence (Q9UBN7 1-1215): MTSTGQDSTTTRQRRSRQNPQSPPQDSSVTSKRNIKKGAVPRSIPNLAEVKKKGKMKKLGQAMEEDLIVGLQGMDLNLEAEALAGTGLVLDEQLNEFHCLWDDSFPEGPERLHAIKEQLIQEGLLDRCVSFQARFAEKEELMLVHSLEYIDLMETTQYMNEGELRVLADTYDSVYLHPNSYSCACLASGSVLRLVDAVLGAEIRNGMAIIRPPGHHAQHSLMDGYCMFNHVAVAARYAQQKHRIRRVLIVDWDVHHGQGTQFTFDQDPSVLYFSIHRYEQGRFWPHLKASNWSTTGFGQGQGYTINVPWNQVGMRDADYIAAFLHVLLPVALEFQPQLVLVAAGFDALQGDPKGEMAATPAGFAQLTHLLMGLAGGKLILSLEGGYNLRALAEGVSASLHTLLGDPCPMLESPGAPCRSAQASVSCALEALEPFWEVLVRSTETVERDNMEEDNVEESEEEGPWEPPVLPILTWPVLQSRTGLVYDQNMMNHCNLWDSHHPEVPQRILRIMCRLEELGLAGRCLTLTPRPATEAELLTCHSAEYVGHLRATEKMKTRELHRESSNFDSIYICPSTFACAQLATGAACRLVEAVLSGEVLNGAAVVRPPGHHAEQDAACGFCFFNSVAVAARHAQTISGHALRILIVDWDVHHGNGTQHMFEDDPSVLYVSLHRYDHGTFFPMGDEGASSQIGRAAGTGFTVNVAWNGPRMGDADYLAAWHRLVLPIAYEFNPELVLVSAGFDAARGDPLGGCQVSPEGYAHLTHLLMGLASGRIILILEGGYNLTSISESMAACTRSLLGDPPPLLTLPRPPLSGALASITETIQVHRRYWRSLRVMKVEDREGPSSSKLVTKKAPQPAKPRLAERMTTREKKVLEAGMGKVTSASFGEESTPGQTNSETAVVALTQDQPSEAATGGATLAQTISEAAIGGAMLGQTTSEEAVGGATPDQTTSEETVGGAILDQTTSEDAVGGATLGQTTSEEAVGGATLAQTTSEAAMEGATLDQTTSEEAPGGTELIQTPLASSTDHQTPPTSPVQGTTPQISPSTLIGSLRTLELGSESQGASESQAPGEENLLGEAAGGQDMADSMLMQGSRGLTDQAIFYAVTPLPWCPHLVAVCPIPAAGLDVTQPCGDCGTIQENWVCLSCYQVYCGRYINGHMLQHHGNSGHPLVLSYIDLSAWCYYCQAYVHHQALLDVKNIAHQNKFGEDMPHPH
Description: (§1) Compounds 2 and 9 were tested in an enzymatic assay from Reaction Biology® against HDAC isoforms.
(§2) Base Reaction buffer: 50 mM Tris-HCl, pH8.0, 137 mM NaCl, 2.7 mM KCl, and 1 mM MgCl2. Add fresh: 1 mg/ml BSA, 1% DMSO
(§3) Fluorogenic HDAC General Substrate (HDAC1, HDAC2, HDAC3, HDAC6, HDAC10, and HDAC11): 50 μM, Arg-His-Lys-Lys(Ac)-AMC
(§4) 1. Delivered 2X enzyme in wells of reaction plate except in the control wells and added buffer to control wells. 2. Delivered compounds in 100% DMSO into the enzyme mixture by Acoustic technology (Echo550; nanoliter range). Spin down and pre-incubation. 3. Delivered 2X Substrate Mixture (Fluorogenic HDAC Substrate and co-factor if applicable) in all reaction wells to initiate the reaction. Spin and shake. 4. Incubated for 30 min for Class 2A, 1 h for HDAC1, 2, 3, and 6, and 2 h for the rest of HDAC isoforms and SIRTs at 30° C. with seal.
(§5) 5. Added Developer with Trichostatin A (or Nicotinamide for SIRTs) to stop the reaction and to generate fluorescent color. 6. The fluorescence that was generated was detected with excitation (Ex) at […] and emission (Em) at 460 nM by the EnVision Multilabel Plate Reader (PerkinElmer®, Santa Clara, Calif., USA).
(§6) IC50 values were derived from a 10-dose response curve. As shown in Tables 1-2, the addition of a linker and CRBN targeting group altered the isoform selectivity of the SAHA-based degrader compounds.

[2] = biological target: T2, HDAC3 (Homo sapiens, UniProt O15379); assay: as above; assay type: biochemical; parameters: purchased Reaction Biology
Description: as §1, §2, §3, §4, §5, §6
Target sequence in this assay (O15379 whole entry): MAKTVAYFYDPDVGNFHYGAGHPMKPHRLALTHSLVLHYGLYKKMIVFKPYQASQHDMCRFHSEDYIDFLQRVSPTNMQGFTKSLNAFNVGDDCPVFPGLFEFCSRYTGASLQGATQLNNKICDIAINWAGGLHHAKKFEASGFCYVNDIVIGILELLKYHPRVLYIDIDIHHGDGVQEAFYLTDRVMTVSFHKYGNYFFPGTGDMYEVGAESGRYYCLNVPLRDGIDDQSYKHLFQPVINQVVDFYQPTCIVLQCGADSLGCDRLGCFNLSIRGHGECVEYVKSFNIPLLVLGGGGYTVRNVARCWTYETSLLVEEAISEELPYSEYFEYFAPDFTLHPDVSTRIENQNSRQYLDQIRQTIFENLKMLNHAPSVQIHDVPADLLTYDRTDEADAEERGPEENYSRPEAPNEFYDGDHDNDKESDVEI
Target sequence in this assay (Q9Y618 395-489 partner limits assumed): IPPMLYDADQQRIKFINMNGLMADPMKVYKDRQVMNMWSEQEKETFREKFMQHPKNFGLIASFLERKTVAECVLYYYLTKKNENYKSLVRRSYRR

[3] = biological target: T3, HDAC1 (Homo sapiens, UniProt Q13547); assay: as above; assay type: biochemical
T3 construct: purchased Reaction Biology
Description: as §1, §2, §3, §4, §5, §6

[4] = biological target: T4, HDAC2 (Homo sapiens, UniProt Q92769); assay: as above; assay type: biochemical
T4 construct: purchased Reaction Biology
Description: as §1, §2, §3, §4, §5, §6

[5] = biological target: T5, HDAC8 (Homo sapiens, UniProt Q9BY41); assay: HDAC enzymatic assay (Reaction Biology), HDAC8 substrate; assay type: biochemical; parameters: purchased Reaction Biology
T5 sequence (Q9BY41 1-377): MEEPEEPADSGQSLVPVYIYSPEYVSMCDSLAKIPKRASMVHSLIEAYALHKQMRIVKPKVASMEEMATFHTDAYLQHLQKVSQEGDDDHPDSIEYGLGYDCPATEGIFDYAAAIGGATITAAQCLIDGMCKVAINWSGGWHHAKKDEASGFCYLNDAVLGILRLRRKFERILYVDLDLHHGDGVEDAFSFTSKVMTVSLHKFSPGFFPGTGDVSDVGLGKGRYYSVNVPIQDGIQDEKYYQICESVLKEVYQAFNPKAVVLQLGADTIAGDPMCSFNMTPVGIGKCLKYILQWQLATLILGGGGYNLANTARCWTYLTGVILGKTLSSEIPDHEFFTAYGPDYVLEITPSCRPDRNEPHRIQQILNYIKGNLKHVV
Description: as §1, §2
(HDAC8 only substrate: 50 μM, Arg-His-Lys(Ac)-Lys(Ac))-AMC
as §4, §5, §6

[6] = biological target: T6, VHL (Homo sapiens, UniProt P40337); assay: Cellular VHL engagement assay (BRD4BD2-GFP / mCherry reporter cells); assay type: cell-based; conditions: with 250 nM AT1, 5 h
T6 construct: Cells stably expressing the BRD4BD2-GFP with mCherry reporter (40) were seeded; endogenous in cells
Description: Cells stably expressing the BRD4BD2-GFP with mCherry reporter (40) were seeded at 30-50% confluency in 384-well plates with 50 μL per well of FluoroBrite™ DMEM media (Thermo Fisher Scientific, A18967) supplemented with 10% FBS a day before compound treatment. Compounds and 250 nM AT1((2S,4R)-1-(2R)-2-Acetamido-3-[[6-[2-[(6S)-4-(4-chlorophenyl)-2,3,9-trimethyl-6H-thieno[3,2-f][1,2,4]triazolo[4,3-a][1,4]diazepin-6-yl]acetamido]hexyl]thio]-3-methylbutanoyl]-4-hydroxy-N-[4-(4-methylthiazol-5-yl)benzyl)pyrrolidinine-2-carboxamide) were dispensed using a D300e Digital Dispenser (HP), normalized to 0.5% DMSO, and incubated with the cells for 5 h. The assay plate was imaged immediately using an Acumen® High Content Imager (TTP Labtech) with 488 nm and 561 nm lasers in a […] grid per well format. The resulting images were analyzed using CellProfiler™.
A series of image analysis steps (an ‘image analysis pipeline’) was constructed. First, the red and green channels were aligned and cropped to target the middle of each well (to avoid analysis of the heavily clumped cells at the edges). A background illumination function was calculated for both red and green channels of each well individually and subtracted to correct for illumination variations across the 384-well plate from various sources of error. An additional step was then applied to the green channel to suppress the analysis of large auto fluorescent artifacts and enhance the analysis of cell specific fluorescence by way of selecting for objects under a given size (30 A.U.) and with a given shape (speckles). mCherry-positive cells were then identified in the red channel by filtering for objects 8-60 pixels in diameter and by using intensity to distinguish between clumped objects. The green channel was then segmented into GFP positive and negative areas and objects were labeled as GFP positive if at least 40% of it overlapped with a GFP positive area. The fraction of GFP-positive cells/mCherry-positive cells in each well was then calculated, and the green and red images were rescaled for visualization.

[7] = tested on: other identified HDAC proteins; assay: Change in cellular protein abundance (TMT proteomics) in Kelly cells; assay type: cell-based, human; conditions: 1 μM, 5 hours, vs DMSO
Description: (§7) Lysis buffer (8 M Urea, 50 mM NaCl, 50 mM 4-(2hydroxyethyl)-1-piperazineethanesulfonic acid (EPPS) pH 8.5, protease and phosphatase inhibitors from Roche®) were added to the cell pellets and homogenized by 20 passes through a 21 gauge (1.25 in. long) needle to achieve a cell lysate with a protein concentration between 1-4 mg mL-1. A micro-BCA assay (Pierce™) was used to determine the final protein concentration in the cell lysate. 200 μg of protein for each sample were reduced and alkylated as described in Donovan et al., Elife 7:e38430 (2018).
Proteins were precipitated using methanol/chloroform. Four volumes of methanol were added to the cell lysate, followed by one volume of chloroform, and finally three volumes of water. The mixture was vortexed and centrifuged to separate the chloroform phase from the aqueous phase. […]
Anhydrous ACN was added to each peptide sample to a final concentration of 30% v/v, and labeling was induced with the addition of TMT reagent to each sample at a ratio of 1:4 peptide:TMT label. […] The sample channels were combined at a 1:1:1:1:1:1:1:1:1:1:1 ratio, desalted using Cis solid phase extraction cartridges (Waters®) and analyzed by LC-MS for channel ratio comparison. Samples were then combined using the adjusted volumes determined in the channel ratio analysis and dried down in a speed vacuum. […]

[8] = biological target: T2, HDAC3; assay: as above; assay type: cell-based; parameters: relative change in relative protein abundance with treatment of Kelly cells; endogenous in cells; host or cells: Kelly cells
Description: as §7
Target sequence in this assay (O15379 whole entry): as the sequence (O15379 whole entry) above
Proteins were precipitated using methanol/chloroform. Four volumes of methanol were added to the cell lysate, followed by one volume of chloroform, and finally three volumes of water. The mixture was vortexed and centrifuged to separate the chloroform phase from the aqueous phase. The precipitated protein was washed with three volumes of methanol, centrifuged and the resulting washed precipitated protein was allowed to air dry. The precipitated protein was resuspended in 4 M Urea, 50 mM HEPES pH 7.4, followed by dilution to 1 M urea with the addition of 200 mM EPPS, pH 8. Proteins were first digested with LysC (1:50; enzyme:protein) for 12 hours at room temperature. The LysC digestion was diluted to 0.5 M Urea with 200 mM EPPS pH 8 followed by digestion with trypsin (1:50; enzyme:protein) for 6 hours at 37° C. Tandem mass tag (TMT) reagents (Thermo Fisher Scientific) were dissolved in anhydrous acetonitrile (ACN) according to manufacturer's instructions.
Anhydrous ACN was added to each peptide sample to a final concentration of 30% v/v, and labeling was induced with the addition of TMT reagent to each sample at a ratio of 1:4 peptide:TMT label. The 10-plex labeling reactions were performed for 1.5 hours at room temperature and the reaction quenched by the addition of hydroxylamine to a final concentration of 0.3% for 15 minutes at room temperature. The sample channels were combined at a 1:1:1:1:1:1:1:1:1:1:1 ratio, desalted using Cis solid phase extraction cartridges (Waters®) and analyzed by LC-MS for channel ratio comparison. Samples were then combined using the adjusted volumes determined in the channel ratio analysis and dried down in a speed vacuum. The combined sample was then resuspended in 1% formic acid, and acidified (pH 2-3) before being subjected to desalting with C18 SPE (Sep-Pak®, Waters®). Samples were then offline fractionated into 96 fractions by high pH reverse-phase HPLC (Agilent® LC1260) through an aeris peptide xb-c18 column (Phenomenex®) with mobile phase A containing 5% acetonitrile and 10 mM NH4HCO3 in LC-MS grade H2O, and mobile phase B containing 90% acetonitrile and 10 mM NH4HCO3 in LC-MS grade H2O (both pH 8.0). The 96 resulting fractions were then pooled in a non-continuous manner into 24 fractions and these fractions were used for subsequent mass spectrometry analysis.
Data were collected using an Orbitrap Fusion™ Lumos™ mass spectrometer (Thermo Fisher Scientific, San Jose, Calif., USA) coupled with a Proxeon EASY-nLC™ 1200 LC pump (Thermo Fisher Scientific). Peptides were separated on an EasySpray™ ES803 75 μm inner diameter microcapillary column (ThermoFisher Scientific).
Each analysis used an MS3-based TMT method as described previously. The data were acquired using a mass range of m z 340-1350, resolution 120,000, automatic gain control (AGC) target 1×10^6, maximum injection time 100 ms, dynamic exclusion of 120 seconds for the peptide measurements in the Orbitrap Fusion™ Lumos™ mass spectrometer. Data dependent MS2 spectra were acquired in the ion trap with a normalized collision energy (NCE) set at 55%, AGC target set to 1.5×10^5 and a maximum injection time of 150 ms. […]

T6 sequence (P40337 whole entry, species assumed): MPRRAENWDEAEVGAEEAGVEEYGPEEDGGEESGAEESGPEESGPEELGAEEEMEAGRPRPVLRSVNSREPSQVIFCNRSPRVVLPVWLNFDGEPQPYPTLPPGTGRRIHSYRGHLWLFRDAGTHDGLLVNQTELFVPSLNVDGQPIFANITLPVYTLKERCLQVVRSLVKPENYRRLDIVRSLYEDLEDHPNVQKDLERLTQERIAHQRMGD
T4 sequence (Q92769 whole entry): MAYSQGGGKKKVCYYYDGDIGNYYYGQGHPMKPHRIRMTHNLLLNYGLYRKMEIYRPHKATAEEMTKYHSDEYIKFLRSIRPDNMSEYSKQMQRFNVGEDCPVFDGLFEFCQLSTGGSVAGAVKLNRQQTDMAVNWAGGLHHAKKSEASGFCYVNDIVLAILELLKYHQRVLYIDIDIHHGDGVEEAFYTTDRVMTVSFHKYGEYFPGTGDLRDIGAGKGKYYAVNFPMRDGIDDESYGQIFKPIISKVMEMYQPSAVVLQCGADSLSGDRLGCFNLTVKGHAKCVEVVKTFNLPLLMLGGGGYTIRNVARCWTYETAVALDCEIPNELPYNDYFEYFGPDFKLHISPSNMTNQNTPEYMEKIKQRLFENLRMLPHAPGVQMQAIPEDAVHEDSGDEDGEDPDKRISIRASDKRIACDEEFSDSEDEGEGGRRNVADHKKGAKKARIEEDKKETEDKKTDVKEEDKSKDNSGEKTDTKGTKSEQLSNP
T3 sequence (Q13547 whole entry): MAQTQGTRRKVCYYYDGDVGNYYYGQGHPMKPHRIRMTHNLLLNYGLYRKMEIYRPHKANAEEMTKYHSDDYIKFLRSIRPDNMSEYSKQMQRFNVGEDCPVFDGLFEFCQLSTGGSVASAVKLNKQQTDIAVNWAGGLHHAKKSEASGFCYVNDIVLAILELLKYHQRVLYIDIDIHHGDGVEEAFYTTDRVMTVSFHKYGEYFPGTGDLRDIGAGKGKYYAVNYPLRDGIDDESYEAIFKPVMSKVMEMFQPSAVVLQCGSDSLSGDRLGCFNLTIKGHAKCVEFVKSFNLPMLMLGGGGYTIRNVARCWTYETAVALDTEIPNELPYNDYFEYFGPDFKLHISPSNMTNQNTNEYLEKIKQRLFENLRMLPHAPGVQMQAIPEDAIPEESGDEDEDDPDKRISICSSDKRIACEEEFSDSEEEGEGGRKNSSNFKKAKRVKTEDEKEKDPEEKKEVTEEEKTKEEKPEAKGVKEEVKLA

inhibition of HDAC6 activity in vitro (in words) [1] | inhibition of HDAC3 deacetylase activity in vitro (in words) [2] | IC50 ([2]; 10-dose response curve, read-out: Compound IC50 (M), HDAC3) [M] | inhibition of HDAC1 deacetylase activity in vitro (in words) [3] | IC50 ([3]; 10-dose response curve, read-out: Compound IC50 (M), HDAC1) [M] | inhibition of HDAC2 deacetylase activity in vitro (in words) [4] | IC50 ([4]; 10-dose response curve, read-out: Compound IC50 (M), HDAC2) [M] | inhibition of HDAC8 deacetylase activity in vitro (in words) [5] | IC50 [6] [µM] | cellular HDAC3 protein levels, change in relative protein abundance (heat map FIG. 2) ([8]; 1 μM, 5 hours, vs DMSO) | HDAC3 protein levels, relative protein abundance compared to DMSO control ([8]; scatter plots FIG. 1 and FIG. 3) | SMILES | cellular protein levels of the other identified HDAC proteins (heat map FIG. 2) [7]
did not inhibit | moderate inhibition | 1.12e-05 | moderate inhibition | 9.5e-06 | moderate inhibition | 1.15e-05 | did not inhibit | 298 | – | – | Cc1ncsc1-c1ccc([C@H](C)NC(=O)[C@@H]2C[C@@H](O)CN2C(=O)[C@@H](NC(=O)CCOCCN(CCc2c[nH]c3ccccc23)Cc2ccc(/C=C/C(=O)Nc3ccccc3N)cc2)C(C)(C)C)cc1 [Compound 9, (2S,4R)-1-((S)-2-(3-(2-((2-(1H-indol-3-yl)ethyl)(4-((E)-3-((2-aminophenyl)amino)-3-oxoprop-1-en-1-yl)benzyl)amino)ethoxy)propanamido)-3,3-dimethylbutanoyl)-4-hydroxy-N—((S)-1-(4-(4-methylthiazol-5-yl)phenyl)ethyl)pyrrolidine-2-carboxamide] | –
– | – | – | – | – | – | – | – | 16.9 | down-regulation | significant and selective reduction | Cc1ncsc1-c1ccc([C@H](C)NC(=O)[C@@H]2C[C@@H](O)CN2C(=O)[C@@H](NC(=O)CCOCCN(CCc2c[nH]c3ccccc23)Cc2ccc(/C=C/C(=O)NO)cc2)C(C)(C)C)cc1 [Compound 1, (2S,4R)-1-((S)-2-(3-(2-((2-(1H-indol-3-yl)ethyl)(4-((E)-3-(hydroxyamino)-3-oxoprop-1-en-1-yl)benzyl)amino)ethoxy)propanamido)-3,3-dimethylbutanoyl)-4-hydroxy-N—((S)-1-(4-(4-methylthiazol-5-yl)phenyl)ethyl)pyrrolidine-2-carboxamide] | did not affect
